These results are taken from ChEMBL document CHEMBL1201862, “PubChem BioAssay data set” (2004).

Activity calls are given as the source filed them.

Holding throughout (format): functional
The target in assay [1] is T1, High affinity choline transporter 1 (Homo sapiens, UniProt Q9GZV3).
T1 sequence (Q9GZV3 whole entry): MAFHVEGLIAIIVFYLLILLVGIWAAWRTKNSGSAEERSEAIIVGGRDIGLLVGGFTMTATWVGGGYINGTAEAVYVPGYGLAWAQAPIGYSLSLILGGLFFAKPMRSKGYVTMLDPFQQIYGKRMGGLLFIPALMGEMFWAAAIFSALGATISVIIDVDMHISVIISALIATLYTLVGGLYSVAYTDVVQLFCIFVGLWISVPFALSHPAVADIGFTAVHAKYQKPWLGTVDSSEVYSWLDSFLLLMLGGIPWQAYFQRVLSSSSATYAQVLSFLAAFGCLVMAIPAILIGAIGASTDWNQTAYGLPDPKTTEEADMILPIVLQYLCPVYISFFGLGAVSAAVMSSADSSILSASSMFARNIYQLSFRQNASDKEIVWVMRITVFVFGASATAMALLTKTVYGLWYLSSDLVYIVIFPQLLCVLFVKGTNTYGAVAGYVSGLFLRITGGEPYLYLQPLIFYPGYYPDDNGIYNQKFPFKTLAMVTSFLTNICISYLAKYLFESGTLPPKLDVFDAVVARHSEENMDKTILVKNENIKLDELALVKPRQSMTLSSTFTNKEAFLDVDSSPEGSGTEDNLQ
The assay is described as follows: human choline transporter blockers, potency – cell-based, 10-point CRC, membrane potential dye, dose response (AID 588401).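 Note: membrane potential dye fluorescence of choline-evoked depolarization via CHT.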

Assay [2] concerns the target T1, High affinity choline transporter 1. The experiment in a line: human choline transporter blockers, potency – cell-based, 5-point CRC, membrane potential dye, dose response (AID 504840).
Assay [3] concerns the target Fibroblast growth factor receptor 1 (Homo sapiens, UniProt P11362).
For assay [4], the target named is Dual specificity protein kinase CLK4 (Homo sapiens, UniProt Q9HAZ1).
Assay [5] has as its target Receptor-type tyrosine-protein kinase FLT3 (Homo sapiens, UniProt P36888).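 Note: FLT3 was tested as one member of a kinome-wide kinase panel.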
Assay [6] deals with T2, Orexin receptor type 2 (Homo sapiens, UniProt O43614). The experiment in a line: Counterscreen assay for antagonists of the orexin 1 receptor (OX1R; HCRTR1): Homogeneous Time Resolved Fluorescence (HTRF)-based cell-based dose response assay for antagonists of the orexin 2 receptor (OX2R; HCRTR2), run by assay provider. For orientation: The purpose of a counterscreen is to sort out artefacts and off-target activity.

The target in assay [7] is T3, Orexin/Hypocretin receptor type 1 (Homo sapiens, UniProt O43613).
T3 sequence (O43613 whole entry): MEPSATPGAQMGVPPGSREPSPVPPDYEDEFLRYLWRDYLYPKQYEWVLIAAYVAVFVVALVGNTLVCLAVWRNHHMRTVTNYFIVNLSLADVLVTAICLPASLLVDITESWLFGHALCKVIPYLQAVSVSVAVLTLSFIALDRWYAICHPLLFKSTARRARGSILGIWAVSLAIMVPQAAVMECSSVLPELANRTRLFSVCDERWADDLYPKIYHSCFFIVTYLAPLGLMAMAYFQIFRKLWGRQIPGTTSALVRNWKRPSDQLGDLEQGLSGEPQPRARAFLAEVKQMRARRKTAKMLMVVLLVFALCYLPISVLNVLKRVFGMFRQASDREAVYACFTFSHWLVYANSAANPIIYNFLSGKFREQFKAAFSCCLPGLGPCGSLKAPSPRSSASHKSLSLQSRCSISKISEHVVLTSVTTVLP
The assay is described as follows: Fluorescence-based cell-based high throughput dose response assay for antagonists of the orexin 1 receptor (OX1R; HCRTR1). [Related pubchem assays (depositor defined):AID434989, AID435008, AID463079, AID485270, AID492963, AID492964, AID492965, AID493232, AID504717, AID504718].

Assay [8] has as its target T2, Orexin receptor type 2. The assay is described as follows: Counterscreen assay for antagonists of the orexin 1 receptor (OX1R; HCRTR1): Fluorescence-based cell-based dose response assay for antagonists of the orexin 2 receptor (OX2R; HCRTR2), run by assay provider.
A short description of assay [9]: Counterscreen for antagonists of the orexin 1 receptor (OX1R; HCRTR1): Fluorescence-based cell-based high throughput dose response assay to identify antagonists of the parental CHO cell line. [Related pubchem assays (depositor defined):AID434989, AID435008, AID463079, AID485270, AID492963, AID492964, AID492965, AID493232, AID504699, AID504701].
For assay [10], the target named is T3, Orexin/Hypocretin receptor type 1. The assay is described as follows: Homogeneous Time Resolved Fluorescence (HTRF)-based cell-based high throughput dose response assay for antagonists of the orexin 1 receptor (OX1R; HCRTR1). [Related pubchem assays (depositor defined):AID434989, AID435008, AID463079, AID485270, AID492963, AID492964, AID492965, AID493232, AID504717, AID504718]. For orientation: Time-resolved FRET reads energy transfer from a long-lived donor to a nearby acceptor.

Another assay relates to CHO-K1. The experiment in a line: Counterscreen for antagonists of the orexin 1 receptor (OX1R; HCRTR1): Homogeneous time resolved fluorescence (HTRF)-based cell-based dose response assay to identify antagonists of the parental CHO-K1 cell line. [Related pubchem assays (depositor defined):AID434989, AID435008, AID463079, AID485270, AID492963, AID492964, AID492965, AID493232, AID504699, AID504701]. The note with it: Cricetulus griseus.

Assay [11] deals with Cyclin-dependent kinase 8 (Homo sapiens, UniProt P49336). The assay is described as follows: Navigating the Kinome. Panel member name: CDK8.
Assay [12] has as its target Vascular endothelial growth factor receptor 1 (Homo sapiens, UniProt P17948).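 Note: measured within a kinome-wide profiling panel, FLT1 as the panel member.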
In assay [13] the target is Leucine-rich repeat serine/threonine-protein kinase 2 (Homo sapiens, UniProt Q5S007).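 Note: value from a broad kinome-wide panel profiling study in which LRRK2 was one of the kinases tested.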
Assay [14] deals with Hepatocyte growth factor receptor (Homo sapiens, UniProt P08581).
For assay [15], the target named is RAC-alpha serine/threonine-protein kinase (Homo sapiens, UniProt P31749).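 Note: AKT1 affinity measured as one member of a kinome-wide kinase profiling panel.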
Assay [16] has as its target Serine/threonine-protein kinase pim-3 (Homo sapiens, UniProt Q86V86).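 Note: value obtained as one member of a broad kinase panel profiling effort.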
The next assay has as its target Insulin receptor (Homo sapiens, UniProt P06213).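 Note: insulin receptor kinase tested as one member of a kinome-wide kinase panel.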
The target of assay [17] is RAC-gamma serine/threonine-protein kinase (Homo sapiens, UniProt Q9Y243).
Assay [18] addresses Serine/threonine-protein kinase PLK3 (Homo sapiens, UniProt Q9H4B4).
Assay [19] addresses Serine/threonine-protein kinase PLK4 (Homo sapiens, UniProt O00444).
Assay [20] concerns the target Serine/threonine-protein kinase pim-1 (Homo sapiens, UniProt P11309).
The target of assay [21] is Serine/threonine-protein kinase Chk1 (Homo sapiens, UniProt O14757).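 Note: measured as one member of a kinome-wide kinase profiling panel.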
Assay [22] addresses Serine/threonine-protein kinase PLK1 (Homo sapiens, UniProt P53350).
Assay [23] addresses Vascular endothelial growth factor receptor 2 (Homo sapiens, UniProt P35968).
In assay [24] the target is Cyclin-dependent kinase 19 (Homo sapiens, UniProt Q9BWU1). The experiment in a line: Navigating the Kinome. Panel member name: CDC2L6.
For assay [25], the target named is ALK tyrosine kinase receptor (Homo sapiens, UniProt Q9UM73).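 Note: ALK tested as one member of a kinase panel screen.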
Assay [26] addresses Mitogen-activated protein kinase 13 (Homo sapiens, UniProt O15264).
The target in assay [27] is BDNF/NT-3 growth factors receptor (Homo sapiens, UniProt Q16620).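 Note: NTRK2 measured as one member of a broad kinome-wide kinase profiling panel.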
For assay [28], the target named is High affinity nerve growth factor receptor (Homo sapiens, UniProt P04629).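 Note: NTRK1 tested as one member of a kinome-wide profiling panel.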

Sequence of Fibroblast growth factor receptor 1 (P11362 whole entry): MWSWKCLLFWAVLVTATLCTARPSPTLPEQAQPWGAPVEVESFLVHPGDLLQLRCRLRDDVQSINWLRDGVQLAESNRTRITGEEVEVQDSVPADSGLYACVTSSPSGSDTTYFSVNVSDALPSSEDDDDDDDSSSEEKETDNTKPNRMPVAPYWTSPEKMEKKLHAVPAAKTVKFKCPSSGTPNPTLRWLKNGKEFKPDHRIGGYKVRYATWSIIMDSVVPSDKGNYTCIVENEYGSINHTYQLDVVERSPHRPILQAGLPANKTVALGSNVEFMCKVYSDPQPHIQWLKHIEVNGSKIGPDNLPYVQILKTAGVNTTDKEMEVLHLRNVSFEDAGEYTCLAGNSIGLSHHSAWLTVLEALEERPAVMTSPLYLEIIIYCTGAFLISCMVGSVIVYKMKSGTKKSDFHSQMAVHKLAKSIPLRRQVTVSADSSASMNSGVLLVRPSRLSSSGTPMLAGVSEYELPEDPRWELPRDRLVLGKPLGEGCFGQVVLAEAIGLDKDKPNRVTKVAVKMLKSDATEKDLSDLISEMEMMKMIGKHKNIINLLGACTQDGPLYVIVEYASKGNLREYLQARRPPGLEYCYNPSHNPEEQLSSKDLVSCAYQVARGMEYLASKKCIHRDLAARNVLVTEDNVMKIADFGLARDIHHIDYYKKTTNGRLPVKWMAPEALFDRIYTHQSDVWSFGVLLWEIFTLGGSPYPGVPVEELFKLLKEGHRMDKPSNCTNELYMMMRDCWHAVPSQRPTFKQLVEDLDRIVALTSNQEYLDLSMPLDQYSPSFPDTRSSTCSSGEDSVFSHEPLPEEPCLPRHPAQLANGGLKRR
Sequence of Receptor-type tyrosine-protein kinase FLT3 (P36888 whole entry): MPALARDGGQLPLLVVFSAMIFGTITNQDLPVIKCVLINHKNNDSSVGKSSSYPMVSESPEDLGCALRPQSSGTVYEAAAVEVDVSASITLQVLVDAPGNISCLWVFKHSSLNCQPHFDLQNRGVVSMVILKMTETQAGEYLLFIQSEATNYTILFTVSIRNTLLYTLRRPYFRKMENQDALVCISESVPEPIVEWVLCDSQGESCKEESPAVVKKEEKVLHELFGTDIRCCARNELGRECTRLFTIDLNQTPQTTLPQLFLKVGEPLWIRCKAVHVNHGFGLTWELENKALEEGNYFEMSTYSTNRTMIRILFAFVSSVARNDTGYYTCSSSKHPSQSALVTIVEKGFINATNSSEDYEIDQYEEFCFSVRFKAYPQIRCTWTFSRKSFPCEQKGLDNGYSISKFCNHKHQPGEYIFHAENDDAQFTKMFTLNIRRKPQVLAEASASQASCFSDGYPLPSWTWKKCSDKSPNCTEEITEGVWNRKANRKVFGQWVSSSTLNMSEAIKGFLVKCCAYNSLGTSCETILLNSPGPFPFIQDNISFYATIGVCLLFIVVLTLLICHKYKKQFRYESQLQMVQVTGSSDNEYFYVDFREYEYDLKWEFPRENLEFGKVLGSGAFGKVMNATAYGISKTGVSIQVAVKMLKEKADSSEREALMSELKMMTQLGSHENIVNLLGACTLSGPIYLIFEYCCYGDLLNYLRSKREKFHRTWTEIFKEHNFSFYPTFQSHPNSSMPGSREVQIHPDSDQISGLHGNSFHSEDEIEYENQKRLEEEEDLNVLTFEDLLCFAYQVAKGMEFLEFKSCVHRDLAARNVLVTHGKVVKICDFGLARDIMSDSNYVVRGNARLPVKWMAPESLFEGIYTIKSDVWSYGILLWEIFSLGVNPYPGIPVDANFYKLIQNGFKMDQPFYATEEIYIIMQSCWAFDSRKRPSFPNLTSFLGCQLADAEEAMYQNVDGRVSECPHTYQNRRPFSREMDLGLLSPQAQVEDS
T2 sequence (O43614 whole entry): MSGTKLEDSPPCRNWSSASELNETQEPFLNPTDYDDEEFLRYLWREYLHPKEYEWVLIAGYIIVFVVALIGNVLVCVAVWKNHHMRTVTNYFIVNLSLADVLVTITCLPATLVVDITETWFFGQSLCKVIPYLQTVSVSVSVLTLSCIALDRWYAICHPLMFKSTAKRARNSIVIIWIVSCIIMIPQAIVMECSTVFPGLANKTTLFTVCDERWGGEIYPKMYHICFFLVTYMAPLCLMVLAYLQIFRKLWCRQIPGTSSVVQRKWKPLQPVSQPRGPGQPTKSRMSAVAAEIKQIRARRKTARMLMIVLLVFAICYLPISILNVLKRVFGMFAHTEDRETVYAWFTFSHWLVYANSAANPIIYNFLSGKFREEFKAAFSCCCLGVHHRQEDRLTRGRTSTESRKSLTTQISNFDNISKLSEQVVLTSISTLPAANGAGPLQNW
Sequence of RAC-alpha serine/threonine-protein kinase (P31749 whole entry): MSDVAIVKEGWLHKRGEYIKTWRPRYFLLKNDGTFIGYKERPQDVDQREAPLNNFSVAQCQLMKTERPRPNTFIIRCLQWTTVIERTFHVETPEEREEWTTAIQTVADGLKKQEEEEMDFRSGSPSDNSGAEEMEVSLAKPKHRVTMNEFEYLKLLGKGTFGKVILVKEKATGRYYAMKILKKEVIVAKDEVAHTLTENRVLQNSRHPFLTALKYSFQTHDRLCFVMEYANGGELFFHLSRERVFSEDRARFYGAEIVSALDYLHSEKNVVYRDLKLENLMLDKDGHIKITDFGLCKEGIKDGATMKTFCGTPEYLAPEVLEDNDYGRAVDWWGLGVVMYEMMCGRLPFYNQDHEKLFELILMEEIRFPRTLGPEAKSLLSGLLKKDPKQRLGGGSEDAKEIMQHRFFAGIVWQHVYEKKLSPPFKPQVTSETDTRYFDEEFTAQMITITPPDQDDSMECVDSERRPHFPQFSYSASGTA
Sequence of Hepatocyte growth factor receptor (P08581 whole entry): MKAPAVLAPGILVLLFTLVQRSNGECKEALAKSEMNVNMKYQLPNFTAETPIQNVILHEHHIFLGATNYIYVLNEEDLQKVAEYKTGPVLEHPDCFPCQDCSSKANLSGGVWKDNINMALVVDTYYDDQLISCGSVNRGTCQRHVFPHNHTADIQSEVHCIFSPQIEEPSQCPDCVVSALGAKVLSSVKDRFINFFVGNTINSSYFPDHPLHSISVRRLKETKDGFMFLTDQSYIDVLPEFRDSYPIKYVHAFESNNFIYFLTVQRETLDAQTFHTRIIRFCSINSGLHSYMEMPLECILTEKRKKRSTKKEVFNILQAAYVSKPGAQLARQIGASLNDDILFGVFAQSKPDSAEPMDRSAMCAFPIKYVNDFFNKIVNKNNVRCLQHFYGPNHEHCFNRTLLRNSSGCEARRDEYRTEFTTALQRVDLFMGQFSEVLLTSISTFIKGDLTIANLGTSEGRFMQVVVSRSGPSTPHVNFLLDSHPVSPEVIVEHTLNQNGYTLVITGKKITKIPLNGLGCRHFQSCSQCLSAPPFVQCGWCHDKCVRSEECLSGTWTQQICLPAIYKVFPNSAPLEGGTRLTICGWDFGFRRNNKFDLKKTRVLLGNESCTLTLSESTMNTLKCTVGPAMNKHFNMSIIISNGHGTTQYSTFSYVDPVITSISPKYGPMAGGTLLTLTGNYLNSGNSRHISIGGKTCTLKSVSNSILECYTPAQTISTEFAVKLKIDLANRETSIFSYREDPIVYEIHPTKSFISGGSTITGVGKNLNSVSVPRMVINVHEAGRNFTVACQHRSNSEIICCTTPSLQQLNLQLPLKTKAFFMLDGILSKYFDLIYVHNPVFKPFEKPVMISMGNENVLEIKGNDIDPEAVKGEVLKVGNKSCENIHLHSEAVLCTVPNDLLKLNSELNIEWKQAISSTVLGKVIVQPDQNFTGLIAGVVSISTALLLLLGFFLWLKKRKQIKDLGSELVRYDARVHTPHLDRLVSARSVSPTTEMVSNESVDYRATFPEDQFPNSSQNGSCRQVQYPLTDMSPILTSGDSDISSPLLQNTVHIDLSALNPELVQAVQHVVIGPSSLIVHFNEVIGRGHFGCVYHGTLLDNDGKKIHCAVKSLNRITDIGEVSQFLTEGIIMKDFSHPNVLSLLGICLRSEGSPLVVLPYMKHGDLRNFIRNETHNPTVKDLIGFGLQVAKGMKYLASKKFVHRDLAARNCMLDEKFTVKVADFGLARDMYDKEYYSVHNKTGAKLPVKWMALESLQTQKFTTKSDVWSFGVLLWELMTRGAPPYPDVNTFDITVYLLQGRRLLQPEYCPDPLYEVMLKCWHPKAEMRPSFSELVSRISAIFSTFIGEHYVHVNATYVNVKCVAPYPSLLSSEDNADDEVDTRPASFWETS
Sequence of Mitogen-activated protein kinase 13 (O15264 whole entry): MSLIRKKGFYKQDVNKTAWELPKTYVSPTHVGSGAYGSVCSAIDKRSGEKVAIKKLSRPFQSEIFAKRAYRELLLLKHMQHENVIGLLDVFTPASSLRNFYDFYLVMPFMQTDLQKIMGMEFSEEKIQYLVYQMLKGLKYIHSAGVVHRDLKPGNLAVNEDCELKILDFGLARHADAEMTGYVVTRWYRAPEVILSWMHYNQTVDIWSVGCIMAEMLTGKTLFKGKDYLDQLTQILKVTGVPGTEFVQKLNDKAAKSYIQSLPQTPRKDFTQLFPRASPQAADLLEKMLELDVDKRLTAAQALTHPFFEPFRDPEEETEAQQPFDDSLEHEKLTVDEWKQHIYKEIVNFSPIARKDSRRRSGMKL
Sequence of Serine/threonine-protein kinase pim-1 (P11309 whole entry): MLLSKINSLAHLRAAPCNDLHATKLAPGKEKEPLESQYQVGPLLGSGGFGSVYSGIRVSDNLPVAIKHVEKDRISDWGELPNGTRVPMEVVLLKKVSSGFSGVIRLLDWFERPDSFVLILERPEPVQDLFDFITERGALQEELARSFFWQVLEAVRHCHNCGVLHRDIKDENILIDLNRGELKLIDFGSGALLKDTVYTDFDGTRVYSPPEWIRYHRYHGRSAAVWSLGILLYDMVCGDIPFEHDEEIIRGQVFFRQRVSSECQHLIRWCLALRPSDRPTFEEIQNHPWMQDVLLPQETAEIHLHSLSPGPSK

As to `Cc1ccc(C)[n+](CC(=O)c2ccc(-c3ccccc3)cc2)c1`, the IC50 in assay [1] was 10.8 µM (active); in [2], 10.3 µM (active).
As for `CC(C)(C)c1ccc2nc(-c3n[nH]c4ccc(Br)cc34)[nH]c2c1`, the Ki in assay [3] is 3.16 µM (active); in assay [4], 1.26 µM (active); in [5], 2.51 µM (active).
Regarding `Sc1nnc(-c2cc(-c3ccccc3)[nH]n2)n1/N=C/c1cccs1`, the IC50 was > 50 µM (inactive) on Orexin receptor type 2 [6]; > 49.7 µM (inactive) in assay [7]; > 88.8 µM (inactive) on Orexin receptor type 2 [8]; > 49.7 µM (inactive) in assay [9]; 8.08 µM (active) in assay [10]; > 66.2 µM (inactive) in the assay on CHO-K1.
For the compound `O=C(O)C1CN(Cc2ccc(CCc3cccc(C(F)(F)F)c3)cc2)C1`, the Ki in [11] was 3.16 µM (active).
Consider `COc1ccc(CNC(=O)c2sc3nc(C)cc(C)c3c2N)cc1`, for which the values for the Ki in assay [12] and in [13] were 3.16 µM (active) and 1 µM (active), respectively.
With `Nc1n[nH]c2c(Cl)cccc12`, the Ki in assay [14] is > 31.6 µM (inactive); in [15], > 79.4 µM (inactive); in assay [16], > 79.4 µM (inactive); in assay [3], > 50.1 µM (inactive); at Insulin receptor, > 50.1 µM (inactive); in assay [17] it was > 100 µM (inactive). Also, the inhibition constant (Ki) was 10 µM (active) in [18]; > 39.8 µM (inactive) in assay [19]; > 100 µM (inactive) in assay [20]; 25.1 µM (active) in assay [21]; > 79.4 µM (inactive) in assay [22]; > 79.4 µM (inactive) in assay [23]. Moreover, the inhibition constant Ki in [5] is 2.51 µM (active).
As to `Cn1cc(Nc2ncc(Br)c(Nc3ccccc3Cl)n2)cn1`, the Ki in assay [24] is 1 µM (active); in assay [25], 0.0631 µM (active).
Regarding `CS(=O)(=O)Nc1cc2c(cc1Cl)NC(=O)Nc1cnc(C#N)c(n1)OCCCCCO2`, the Ki in assay [26] is > 7.94 µM (inactive).
As for `COc1ccc(COc2ccc(Cc3cnc(N)nc3N)cc2OC)cc1` [GW632580X], the Ki in [27] is 0.158 µM (active); in [28], 1.58 µM (active).

A word on the IC50: it is the concentration that gives 50% inhibition. A word on the Ki: it is the dissociation constant of the complex between target and ligand, obtained from inhibition or displacement.
